# Results reported in patent publication US11613750B2, “Methods of reducing virus molecule levels” (priority 2019, dated 2023).
# pEC50: −log10 of the molar value.
# Experiments:
# HBsAg = settings: read-out: EC50, Extracell. HBsAg reduction; HepG2.2.15 cells
# HepG2.2.15 cells = assay: HepG2.2.15 cell viability, CellTiter-Glo; settings: read-out: CC50, HepG2.2.15 cell viability; highest concentration tested 80 nM
# HBeAg = settings: 10 nM siRNA transfected into cells
# SRSF1 protein = assay: Target protein reduction by Western blot in HepG2.2.15 cells; assay type: cell-based, human; settings: 10 nM siRNA, 72 h
# SRSF1 mRNA = assay: Target mRNA reduction by RT-qPCR in HepG2.2.15 cells; assay type: cell-based, human; settings: 10 nM siRNA
# HCoV-OC43 [1] = assay: OC43 virion RNA, Branched DNA assay, infected HCT8 cells; assay type: cell-based, human coronavirus OC43; parameters: reduction in OC43 vRNA: dose or concentration left out as unconfirmed; settings: for OC43 vRNA reduction siRNA and siGRP78: 10 nM siRNA along with 10 nM of siRNA targeting GRP78, HCT8 cells; for OC43 vRNA reduction: 10 nM siRNA
# GRP78 mRNA = assay: Target mRNA reduction by RT-qPCR in HepG2.2.15 cells; assay type: cell-based, human; settings: 10 nM siRNA
# GRP78 protein = assay: Target protein reduction by Western blot in HepG2.2.15 cells; assay type: cell-based, human; settings: 10 nM siRNA, 72 h
# HCoV-OC43 [2] = assay: OC43 virion RNA, RT-qPCR of the OC43 N gene, infected HCT8 cells; assay type: cell-based, human coronavirus OC43; parameters: dose or concentration left out as unconfirmed
Compound,pEC50 (HBsAg),CC50 (HepG2.2.15 cells) [nM],HBeAg reduction HepG2.2.15 cells (HBeAg) [%],Target protein reduction in HepG2.2.15 cells (SRSF1 protein) [%],Target RNA reduction in HepG2.2.15 cells (SRSF1 mRNA) [%],OC43 vRNA reduction siRNA and siGRP78 (HCoV-OC43 [1]) [%],OC43 vRNA reduction (HCoV-OC43 [1]; HCT8 cells) [%],Target RNA reduction in HepG2.2.15 cells (GRP78 mRNA) [%],Target protein reduction in HepG2.2.15 cells (GRP78 protein) [%],reduction in OC43 vRNA (HCoV-OC43 [1]; HCT8 cells),OC43 virion production remaining (HCoV-OC43 [2])
"23 (CUGGAUAACACUAAGUUUAUUUAAACUUAGUGUUAUCCAGUU; siRNA; Self-complementary hairpin strand, chemistry not given here, further chemistry not given here; listed as Homo sapiens) [compound 23]",8.41,> 80,29.8 ± 3,81 ± 11,–,–,–,–,–,–,–
"22 (CAUCUACGUGGGUAACUUAUUUAAGUUACCCACGUAGAUGUU; siRNA; Self-complementary hairpin strand, chemistry not given here, further chemistry not given here; listed as Homo sapiens) [compound 22]",9.05,> 80,33.5 ± 5,92 ± 20,71 ± 1,85 ± 4,36 ± 3,–,–,–,–
"21 (CUGUUACAAUCAAGGUCUATTUAGACCUUGAUUGUAACAGTT; siRNA; Self-complementary hairpin strand, chemistry not given here, further chemistry not given here; listed as Homo sapiens) [compound 21]",8.80,> 80,61.5 ± 10,–,–,90 ± 4,89 ± 8,90 ± 3,59 ± 2,–,–
"CCC(CC)COC(=O)[C@H](C)N[P@](=O)(OC[C@H]1O[C@@](C#N)(c2ccc3c(N)ncnn23)[C@H](O)[C@@H]1O)Oc1ccccc1 [Remdesivir, reference compound]",–,–,–,–,–,–,–,–,–,more than 98%,less than 5%
